These results are taken from publication PMC6318015 (Cancer research, 2018).

Each structure is given as a SMILES string.

The test concerns the target BRD4 (Homo sapiens, UniProt O60885). Briefly: PROTAC-induced BRD4 degradation in HCT116 cells, immunoblot, […] h. The test is classed as cell-based.

`Cc1ncsc1-c1ccc(CNC(=O)[C@@H]2C[C@@H](O)CN2C(=O)[C@@H](NC(=O)COCCCCOCCCOc2ccc(NC(=O)C[C@@H]3N=C(c4ccc(Cl)cc4)c4c(sc(C)c4C)-n4c(C)nnc43)cc2)C(C)(C)C)cc1` [A743] registered a DC50 of 23.1 nM. This lies in the double-digit nanomolar range.
